Assay results published in patent US20250313564A1, “ACIDIC SALT OR CRYSTAL FORM OF NITROGEN-CONTAINING FUSED RING DERIVATIVE INHIBITOR, AND PREPARATION METHOD THEREFOR AND USE THEREOF” (SHANGHAI HANSOH BIOMEDICAL CO., LTD., priority 2022, published 2025).

Assays:
[1] = test system: luteinizing hormone (LH) in plasma of bilaterally ovariectomized (OVX) rats; experiment: Effect on luteinizing hormone (LH) content in plasma of bilaterally ovariectomized (OVX) rats; assay type: in vivo; details: oral 30 mg/kg, plasma LH 0-8 h
Description: The purpose of this test example is to measure the effect of compounds on luteinizing hormone (LH) in plasma of bilaterally ovariectomized (OVX) rats.
• CMCNa (30036365, Sinopharm Chemical Reagent Co., Ltd.); • Tween 80 (30189828, Sinopharm Chemical Reagent Co., Ltd.); • Rat LH ELISA Kit (S-type) purchased from Shibayagi Japan, with catalog number of AKRLH-010S, comprising Assay buffer C, Sample dilution buffer G, Washing buffer, biotinylated anti-LHα antibody, HRP-conjugated streptavidin and Chromogen (TMB).
Bilaterally ovariectomized SD rats, aged 10 weeks, female, purchased from Beijing Vital River Laboratory Animal Technology Co., Ltd. The animals were kept in SPF-grade animal room, with 5 SD rats/cage. […]
Sample detection: All reagents, samples and ELISA plates were transferred to room temperature 20° C.-25° C. and equilibrated for at least 30 min, and dissolution, vortex and centrifugation were performed for later use. […] The OD value of each well was read using the microplate reader at a wavelength of 450 nm.
Graphpad was used to draw a standard curve, and sample concentrations were calculated. If the dilution was performed during the sample detection, the calculated sample concentration needed to be multiplied by the corresponding dilution ratio in the final calculation, which was the actual concentration of the sample.

[2] = Stability of sample of crystal form A (illumination, high temperature, high humidity); assay type: physicochemical
Method: The free base crystal form A of compound 3 of the present invention was taken to prepare a sample, the sample was placed under the conditions of illumination 5000 lx, high temperature 60° C., high humidity 92.5% RH, and high temperature and high humidity 50° C. 75% RH, the 5-day stability and 10-day stability were investigated, a HPLC external standard method was used to determine the content, and a chromatographic peak area normalization method was used to calculate the change in related substances.

[3] = Hygroscopicity of sample of crystal form A; assay type: physicochemical
Method: The free base crystal form A of compound 3 was placed in saturated water vapor at different relative humidities to allow the compound to reach a dynamic equilibrium with the water vapor, and the percentage of weight gain after moisture absorption of the compound after equilibrium was calculated.

[4] = high humidity 92.5% RH, 10 days
[5] = high temperature 60° C., 5 days
[6] = high temperature 60° C., 10 days
[7] = high temperature and high humidity 50° C. 75% RH, 5 days
[8] = high temperature and high humidity 50° C. 75% RH, 10 days

Compound	ΣAUC (ΔLH/LH · h, Mean ± SD) [1]	% Increase in total impurity ([2]; high humidity 92.5% RH, 5 days) [%]	% Maximum increase in single impurity ([2]; high humidity 92.5% RH, 5 days) [%]	% Increase in total impurity [2, 4] [%]	% Maximum increase in single impurity [2, 4] [%]	% Increase in total impurity [2, 5] [%]	% Maximum increase in single impurity [2, 5] [%]	% Increase in total impurity [2, 6] [%]	% Maximum increase in single impurity [2, 6] [%]	% Increase in total impurity [2, 7] [%]	% Maximum increase in single impurity [2, 7] [%]	% Increase in total impurity [2, 8] [%]	% Maximum increase in single impurity [2, 8] [%]	% Increase in total impurity ([2]; illumination 5000 lx, 5 days) [%]	% Maximum increase in single impurity ([2]; illumination 5000 lx, 5 days) [%]	% Increase in total impurity ([2]; illumination 5000 lx, 10 days) [%]	% Maximum increase in single impurity ([2]; illumination 5000 lx, 10 days) [%]	crystal form change (XRPD) after moisture absorption and desorption ([3]; 2 cycles, 0-95% relative humidity)	hygroscopicity (in words) ([3]; RH 80%)	weight gain after moisture absorption ([3]; RH 80%)
[2H]c1cc(C(=O)N2CCn3c(-c4nc(Cl)ns4)nnc3[C@H]2C)ccc1F [Compound 3, (R)-(3-(3-chloro-1,2,4-thiadiazol-5-yl)-8-methyl-5,6-dihydro-[1,2,4]triazolo[4,3-a]pyrazin-7(8H)-yl)(4-fluorophenyl-3-d)methanone]	−5.44 ± 3.02 ΔLH/LH · h	–	–	–	–	–	–	–	–	–	–	–	–	–	–	–	–	–	–	–
[2H]c1cc(C(=O)N2CCn3c(-c4nc(Cl)ns4)nnc3[C@H]2C)ccc1F [free base crystal form A, (R)-(3-(3-chloro-1,2,4-thiadiazol-5-yl)-8-methyl-5,6-dihydro-[1,2,4]triazolo[4,3-a]pyrazin-7(8H)-yl)(4-fluorophenyl-3-d)methanone]	–	<0.02	0.06	<0.02	0.07	0.12	0.07	<0.02	0.07	<0.02	0.03	<0.02	<0.02	<0.02	0.03	<0.02	0.05	no crystal form transformation	weak hygroscopicity	about 0.2720%
